Measurements published in US10478423B2, “Substituted indazole derivatives active as kinase inhibitiors” (NERVIANO MEDICAL SCIENCES S.R.L., priority 2011, dated 2019).

Experiments:
MV-4-11 cells = assay: In vitro cell proliferation assay (CellTiter-Glo), MV-4-11; format: cell-based; conditions: MV4-11, human acute leukemia cells bearing FLT3-ITD mutation, 72 h
Experimental: (§1) The human acute leukemia MOLM-13 AND MV-4-11 cells, bearing a FLT3-ITD mutation, were seeded (5000 cells/well) in white 384 well-plates in complete medium (RPMI 1640 plus 10% Fetal bovine serum) and treated with compounds dissolved in 0.1% DMSO, 24 h after seeding. The cells were incubated at 37° C. and 5% CO2 and after 72 h the plates were processed using CellTiter-Glo assay (Promega) following the manufacturer's instruction.
(§2) CellTiter-Glo is a homogenous method based on the quantification of the ATP present, an indicator of metabolitically active cells. ATP was quantified using a system based on luciferase and D-luciferin resultant into light generation. The luminescent signal was proportional to the number of cells present in culture.
(§3) Briefly, 25 microL/well reagent solution were added to each well and, after 5 minutes shaking, microplates were read by Envision (PerkinElmer) luminometer. Inhibitory activity was evaluated comparing treated versus control data using Symyx Assay Explorer (Symyx Technologies Inc.) program. IC50 was calculated using sigmoidal interpolation curve.

MOLM-13 cells = assay: In vitro cell proliferation assay (CellTiter-Glo), MOLM-13; format: cell-based; conditions: human acute leukemia cells bearing FLT3-ITD mutation, 72 h
Experimental: as §1, §2, §3

Question: For CN(C)c1ccc(C(=O)Nc2n[nH]c3cc(OCc4ccccc4)ccc23)cc1 [Ref. Compound], which IC50 (MV-4-11 cells) is on record?
Answer: Its IC50 is 5.54 µM.

Question: And the IC50 (MOLM-13 cells)?
Answer: Its IC50 is 3.91 µM.
